Results on four compounds are retold here after US20140024683A1, “CHLORIDE CHANNEL AND CHLORIDE TRANSPORTER MODULATORS FOR THERAPY IN SMOOTH MUSCLE DISEASES” (priority 2011, published 2014).

The structures appear in SMILES notation. Where “and” joins values, the source holds several entries; their conditions need not be identical. Equal entries are not always repeated. Where two headings read alike, the source gives them in different places.

The subject of test [1] is human airway smooth muscle cells. In words: FLIPR membrane potentiometric dye assay (Example 21). It is filed as cell-based. The procedure: Immortalized airway smooth muscle cell lines modified to stably express human telomerase reverse transcriptase were a kind gift from Dr. William Gerthoffer (University of Southern Alabama, Mobile, Ala.) prepared as described previously (Gosens et al., 2006) and grown in Dulbecco's Modified Eagle's Medium/F12 media (GIBCO, Grand Island, N.Y.), with 10% FBS and antibiotics.
Immortalized human airway smooth muscle cells were cultured on black-walled 96 well plates to 100% confluence, and were washed four times with warmed (37° C.) assay buffer of the following composition (in mM): NaCl 140, KCl 4.7, CaCl2 2.5, MgCl2 1.2, HEPES 11, D-glucose 10. A stock solution (100% dye) of FLIPR blue dye was prepared by reconstitution of 1 vial (125 mg) with 100 ml assay buffer. A 50% working stock was prepared by further diluting the reconstituted blue dye 1:1 with assay buffer and was used to load cells (90 μl/well) over 45 min at 37° C. in a humidified cell culture incubator (95% air/5% CO2). All reagents were dissolved in assay buffer. Fluorescence was measured with a Flex Station 3 (Molecular Devices) using an excitation wavelength of 530 nm, emission wavelength of 565 nm and a cutoff filter of 550 nm. Baseline fluorescence was measured every 2 seconds for 1 minute then for 2 minutes after injection of vehicle or compound of interest as indicated (using the Flexstation's 3 integrated injection capabilities).
Human airway smooth muscle cells were incubated with FLIPR membrane potentiometric dye to assess if the chloride channel blockers changed membrane potential at the cellular level. FLIPR fluorescence will increase with depolarization, and decrease with hyperpolarization. […] Therefore, chloride channel blockade, but not NKCC blockade, hyperpolarized human airway smooth muscle cells.

The test system is the same in test [2]. In words: Whole cell current clamp recording of membrane potential. It is filed as cell-based. The procedure:
Induced electrophysiological changes in membrane potential and current were measured using traditional whole cell patch clamp methods. Immortalized human airway smooth muscle cells were grown to confluence on collagen-treated T25 flasks. Collagenase type IV in SmBM2 medium (Lonza, Walkersville, Md.) was used to release cells adherent to the collagen matrix in the flask. Medium with cells in suspension was then harvested in a 10-ml conical tube and centrifuged at 300×g. Supernatant was removed, and the pellet was resuspended in SmBM2 medium and transferred into collagen-treated glass bottom 1-cm Petri dishes at about 10% confluence. Each dish was then incubated at 37° C. and 5% CO2 for 1-4 hours for reattachment of cells to glass-bottom Petri dishes.
Glass-bottom dishes served as a disposable recording chamber. ALA VM-8, an 8-chamber pressure-driven drug application system, was used in a still bath of extracellular salt solution. Whole-cell intracellular voltage recordings under current clamp conditions were performed with a 2-kHz Bessel filter, recording at 10 kHz using an Axopatch 200b amplifier (Axon Instruments, Foster City, Calif., USA). Electrodes were pulled using a P-97 micropipette puller from 1.5-mm OD borosilicate capillary glass (Sutter Instruments, Novato, Calif., USA). Glass electrode resistances ranged from 5 to 10 MO with intracellular solution. Whole-cell intracellular current recordings under voltage-clamp conditions were performed with a 2-kHz Bessel filter, recording at 10 kHz using an Axopatch 200b amplifier. For current measurements (FIG. 11) intracellular solutions consisted of (in mM) 140 TEA-Cl, 5 MgATP, 5 EGTA, 1 MgCl2, 10 HEPES, and 5 CaCl2 (pH 7.2). Extracellular solution consisted of (in mM) 134 NaCl, 1.4 KCl, 10 HEPES, 1 MgCl2, 1.8 CaCl2, and 10 glucose (pH 7.4). This induced the classic spontaneously transient inward currents (STICs) and spontaneously transient outward currents (STOCs) well described in this cell type. STOCs are believed to represent activation of calcium activated potassium (KCa) channels while STICs are believed to represent activation of CaCCs. TEA-Cl was included in the buffer to enhance STICs which were then recorded during the addition of 100 μM niflumic acid. When recording TEA- and niflumic acid-induced responses on membrane potential (ΔmV), the intracellular solutions contained (in mM) 140 KCl, 5 MgATP, 5 EGTA, 1 MgCl2, 10 HEPES, and 5 CaCl2 (pH 7.2), and the extracellular solutions consisted of (in mM) 134 NaCl, 5 MgATP, 5 EGTA, 1 MgCl2, 10 HEPES, and 5 CaCl2 (pH 7.2). All recordings were analyzed on Clampfit 8.0 software (Molecular Devices).

Test [3] shares this test system. Format: cell-based. The procedure: This buffer was exchanged at 100 μl/well just before starting the measurement of fluorescence. […] In separate experiments the effect of extracellular chloride concentrations on SOCE was measured by the predepletion of extracellular calcium in low or high chloride buffer (55 mM versus 110 mM NaCl, osmotically balanced with Na gluconate) in the presence of thapsigargin to deplete intracellular calcium stores. Calcium induced fluorescence changes were measured with the reintroduction of 2 mM extracellular CaCl2.

For test [4], the system named is guinea pig tracheal rings. Description: Ex vivo airway smooth muscle force, prevention or relaxation of a contraction (Example 5). To be noted: solo therapy; vs vehicle. The procedure: The chloride channel blocker NPPB and the chloride transporter blocker bumetanide were evaluated for their ability to prevent an initial contraction (n=5) (FIG. 23A) or to relax an existing contraction (n=6) (FIG. 23B).
As a proof of concept for chloride channel blockade in general, another chloride channel blocker, 5-nitro-2-(3-phenylpropylamino)-benzoic acid (NPPB) was used in an ex vivo guinea pig airway smooth muscle model.

Test [5] relates to guinea pig tracheal rings. Description: Relaxation of potassium gluconate contraction in guinea pig tracheal rings. The conditions noted are these: 100 μM; 80 mM potassium gluconate. The method, then:
(§1) Animal protocols were approved by the Columbia University Animal Care and Use Committee. Male Hartley guinea pigs weighing approximately 400 g were anesthetized with intraperitoneal injection of sodium pentobarbital (100 mg/kg). Trachea were removed and transferred to ice cold Krebs-Henseleit (KH) buffer of the following composition (in mM): NaCl 118, KCl 5.6, CaCl2 0.5, MgSO4 0.24, NaH2PO4 1.3, NaHCO3 25, glucose 5.6, pH 7.4. Epithelial-denuded tracheal rings were prepared using a dissecting microscope. Epithelium was removed by gently passing cotton fibers through the lumen of the tracheal rings. The rings were suspended in 4 mL-water jacketed organ baths (37° C.: Radnoti Glass Technology, Monrovia, Calif.) and connected to a Grass FT03 force transducer (Grass Telefactor, West Warwick, R.I.) using silk sutures. The transducers were coupled to the computer with BioPac hardware and data was collected using Acqknowledge 7.3.3 software (BioPac Systems, Goleta, Calif.). KH buffer was bubbled with a gas mixture of 95% oxygen and 5% carbon dioxide and buffer was exchanged every 15 minutes for 1 hour during equilibration of tracheal rings at 1 g resting tension. […].
Many chloride channel blockers are known to also stimulate potassium channels (Greenwood et al., 2007). Thus, we performed additional studies in the presence of a large extracellular concentration of potassium to ensure that our findings of compound 1 or 13 inhibiting a TEA-induced depolarizing contraction were not due to these compounds opening a potassium channel.

The test system of test [6] is RhoA. To be noted: 10 mM TEA-acetate, 2 minutes. The method, then: FIG. 8 is a bar graph showing RhoA activation in human airway smooth muscle cells.
Measurement of activated rhoA in cultured human airway smooth muscle cells were conducted as follows. […] Reaction was stopped by solubilizing cells in buffer. Following clearance of non-solubilized cell material, the solubilized cells were reacted with Rhotekin bound to beads, which isolated activated RhoA from total RhoA. Fractions were then analyzed on a commercially available ELISA plate that quantitates activated versus total RhoA (Cytoskeleton, Inc.)

Test [7] relates to rat lung slices. Description: Airway lumen area in peripheral small airways of rat lung slices. The conditions noted are these: contractile agonists. The method, then:
The measurement of airway contraction of a luminal area of small lung airways using the ex vivo rat lung slice method was performed as described (Perez-Zoghbi et al., 2007). The trachea was cannulated with an intravenous catheter, and after the chest cavity was opened, the collapsed lungs were reinflated with 1.3±0.1 ml of 2% agarose (low-gelling temperature) in Sigma-Hanks' Balanced Salt solution (sHBSS), followed by the injection of 0.2±0.1 of air to flush the agarose-sHBSS out of the airways and into the distal alveolar space. Subsequently, a warm (37° C.) solution of gelatin (type A, porcine skin, 300 bloom, 6% in sHBSS) was perfused through the intrapulmonary blood vessels via the pulmonary artery by injecting about 0.3 ml into the right ventricle. The warm agar and gelatin were gelled with cold sHBSS. A single lung lobe was removed and cut into serial sections of about 130 μm thick with a vibratome at about 4° C., starting at the lung periphery. Slices were maintained in DMEM (Invitrogen) at 37° C. and 10% CO2 for up to 3 days. At 37° C., the gelatin in the blood vessel lumen dissolved, leaving the blood vessel lumen empty. Lung slices were mounted in a custom-made perfusion chamber and held in place with a small sheet of nylon mesh. A second cover glass edged with silicone grease was placed over the lung slice. Perfusion of the lung slice was performed using a gravity-fed perfusion system. The volume of the chamber was about 100 μl with a perfusion rate of about 800 μl/min. […] Digital images were recorded in time lapse (30 frames/min). The area of the bronchiole and arteriole lumen was calculated, from each image, by pixel summing using custom-written software. Experiments were performed at room temperature.

Test [8] deals with Ca^2+-activated chloride channel. In words: Patch-clamp analysis of spontaneous transient inward currents (STICs). (In general: In patch-clamp work, channel activity is measured electrically.)
Test [9] concerns guinea pig tracheal rings. Description: Potentiation of isoproterenol relaxation of acetylcholine contraction, guinea pig tracheal rings. The conditions noted are these: 50 μM compound 13. The method, then: as §1
Therefore, we tested whether the chloride channel blockers or modulation of chloride flux could be used in combination with β-agonists to potentiate their effects. […]. Therefore, a combination of treatment with compound 13 and bumetanide potentiated the relaxation effect of isoproterenol.

In test [10] the test system is human airway smooth muscle. Description: Relaxation of acetylcholine contraction in human airway smooth muscle strips. To be noted: 100 μM alone; EC50 acetylcholine. The procedure:
Studies using de-identified human tissue were reviewed by the Columbia University Institutional Review Board and deemed not human subjects research. Tissues were obtained from healthy, normal organ donor discarded surgical waste subsequent to lung transplant surgery. Tissues were collected after transplant and placed in DMEM media (GIBCO) and bubbled overnight in 5% carbon dioxide and 95% oxygen at 4° C. The following morning, the smooth muscle tissue was carefully dissected under a dissecting microscope and the epithelium removed. The strips were anchored in the organ bath as described above using KH buffer of the same composition. The strips were allowed to equilibrate for 1 hour with buffer exchanges every 15 minutes and were treated with 10^−6 M tetrodotoxin, 10^−5 M pyrilamine, and 10^−5
M MK571. Strips were contracted with an EC50 dose of acetylcholine (Ach)
This experiment was then repeated with human airway smooth muscle to investigate clinical relevance as a model of bronchospasm in humans.

The test system of test [11] is guinea pig tracheal rings. In words: Relaxation of the maintenance phase of a pre-established acetylcholine contraction, guinea pig tracheal rings. The conditions noted are these: 100 μM alone; pre-contracted with EC50 acetylcholine. The method, then:
as §1
Chloride channel blockers were then tested against the plateau phase of an established acetylcholine contraction. […]

Test [12] has as its system guinea pig tracheal rings. In words: Relaxation of TEA contraction in guinea pig tracheal rings (Example 16, library screen). The conditions noted are these: 10 mM TEA. The method, then: as §1
[13] abbreviates: 10 μM compound 13 and bradykinin, n=5.
Setting [14] is: 10 μM compound 13 plus 30 μM bradykinin, n=5.
[15] abbreviates: compound 13 under basal conditions, n=9.

As to `O=C([O-])[C@H](O)[C@@H](O)[C@H](O)[C@H](O)CO.[K+]` [K gluconate, potassium gluconate], the “membrane potential, continuous fluorescence recording (representative tracing)” value in [1] was “depolarizes”. Moreover, the “membrane potential (current clamp, whole cell)” value in test [2] (60-75 mM potassium (K)-gluconate) is on record as “depolarized the cell”. The “intracellular calcium (fluo4-AM fluorescence)” value in test [3] is on record as “increased calcium”.

Consider `O=C(O)c1cc([N+](=O)[O-])ccc1NCCCc1ccccc1` [NPPB, 5-nitro-2-(3-phenylpropylamino)-benzoic acid], for which the “relaxation of an existing contraction” value in [4] was “effective in relaxing an existing contraction”. For the same compound, the “percent of potassium gluconate-induced contraction at 30 minutes” value in [5] is 56.71%±10.6 and 56.7%±10.6.

For the compound `CC[N+](CC)(CC)CC.[Cl-]` [TEA, tetraethylammonium chloride], the “membrane potential (current clamp, whole cell)” value in test [2] (10 mM TEA-Cl) is reported as “depolarized the cell”. The “intracellular calcium (fluo4-AM fluorescence)” value in [3] (10 mM TEA) was “does not increase intracellular Ca^2+”. Also, the RhoA activation result in [6] is reported as “activates rhoA”. Besides, the “percent decrease in lumen area compared to rest” value in test [7] was “significant decrease in lumen area”.

Consider `O=C(O)c1cc(Cl)ccc1NCc1cccc2ccccc12` [compound 13, 5-chloro-2-(1-naphthylmethylamino)benzoic acid], for which the “change in relative fluorescent units (membrane potential, FLIPR)” value in test [1] (100 μM, n=12) is −264.2+/−40 RFU. In addition, in [8] (10 μM compound 13 alone, n=9), the “amplitude of STICs” value is given as 0.44±0.09 fold change with control normalized to 1 and the “frequency of STICs” value is reported as 0.4±0.1 fold change with control normalized to 1. In test [8] (setting [13]), the “amplitude of STICs compared to control” value was 46% and the “frequency of STICs compared to control” value is 40%. Also, in test [8] (setting [14]), the “amplitude of STICs” value is 0.46±0.13 fold change with control normalized to 1 and the “frequency of STICs” value was 0.4±0.14 fold change with control normalized to 1. In test [8] (setting [15]), the “amplitude of STICs” value is given as 44 % of control and the “frequency of STICs” value is given as 40 % of control. The “percent of potassium gluconate-induced contraction at 30 minutes” value in [5] was 68.17%±4.9 and 68.2%±4.9. In addition, the “shift of the EC50 of isoproterenol” value in [9] is listed as 2.2 fold. Besides, the “relaxation of acetylcholine contraction” value in [10] is listed as 52.5%±8.1. Besides, in [11], the “relaxation of established acetylcholine contraction” value is 60.1%±5.7. Also, in test [12] (100 μM), the “percent of the TEA-induced contraction remaining at 15 minutes” value is on record as 61.0±10.1% and the “relaxed fraction of a TEA-induced contraction at 15 minutes after drug addition” value was 39.0%. In [12], the “relaxation of TEA-induced contraction (screen of 20-compound chloride channel blocker library)” value was “most potently relax”.
